Assay results taken from PubChem BioAssay AID330 (DTP/NCI, 2004).
Values joined by “and” are separate entries in the source; they are usually repeats but may differ in a detail not shown here. Equal entries are not always repeated. Toxic doses and inconclusive results are not listed. Rule for the calls: active = survival T/C of 150% or more; inactive = T/C below 125% in these data.

System: P388 leukemia ip, CD2F1 mice, survival T/C
Assay: NCI In Vivo Anticancer Drug Screen. Data for tumor model P388 Leukemia (intraperitoneal) in CD2F1 (CDF1) mice
Conditions: endpoint: median survival time, higher = longer survival
Outline: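 Mice carrying the transplanted tumor received test compound or vehicle. Survival was recorded in each group, and the value is the treated-group measurement divided by that of the vehicle-treated control group.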

[1] = dose: 6.25 mg/kg/injection, schedule: Q01DX005 (ip), vehicle: saline with Tween-80
[2] = dose: 200.0 mg/kg/injection, schedule: Q01DX005 (ip), vehicle: saline with Tween-80
[3] = dose: 12.5 mg/kg/injection, schedule: Q01DX005 (ip), vehicle: saline with Tween-80
[4] = dose: 50.0 mg/kg/injection, schedule: Q01DX005 (ip), vehicle: saline with Tween-80
[5] = dose: 60.0 mg/kg/injection, schedule: Q01DX005 (ip), vehicle: saline with Tween-80
[6] = dose: 120.0 mg/kg/injection, schedule: Q01DX005 (ip), vehicle: saline with Tween-80
[7] = dose: 240.0 mg/kg/injection, schedule: Q01DX005 (ip), vehicle: saline with Tween-80
[8] = dose: 100.0 mg/kg/injection, schedule: Q01DX005 (ip), vehicle: saline with Tween-80
[9] = dose: 50.0 mg/kg/injection, schedule: Q01DX009 (ip), vehicle: saline with Tween-80
[10] = dose: 100.0 mg/kg/injection, schedule: Q01DX009 (ip), vehicle: saline with Tween-80
[11] = dose: 200.0 mg/kg/injection, schedule: Q01DX009 (ip), vehicle: saline with Tween-80
[12] = dose: 12.5 mg/kg/injection, schedule: Q01DX009 (ip), vehicle: saline with Tween-80
[13] = dose: 25.0 mg/kg/injection, schedule: Q01DX009 (ip), vehicle: saline with Tween-80
[14] = dose: 25.0 mg/kg/injection, schedule: Q04DX003 (ip), vehicle: saline
[15] = dose: 50.0 mg/kg/injection, schedule: Q04DX003 (ip), vehicle: saline

Measured: T/C

O=C(N/N=C/c1ccccn1)c1ccccc1[O-].O=C(N/N=C/c1ccccn1)c1ccccc1[O-].[Mn+2]
inactive: dose: 50.0 mg/kg/injection, schedule: Q01DX005 (ip), vehicle: Klucel (hydroxypropylcellulose) (HPC) 103 % of control | dose: 100.0 mg/kg/injection, schedule: Q01DX005 (ip), vehicle: Klucel (hydroxypropylcellulose) (HPC) 101 % of control | dose: 200.0 mg/kg/injection, schedule: Q01DX005 (ip), vehicle: Klucel (hydroxypropylcellulose) (HPC) 107 % of control

COC(=O)c1cc(O)c2c(c1C(=O)OC)C[C@H]1[C@@H]3CCC4=CC(=O)CC[C@]4(C)[C@H]3CC[C@]21C
inactive: dose: 1.5 mg/kg/injection, schedule: Q01DX005 (ip), vehicle: saline with Tween-80 93 % of control | dose: 3.0 mg/kg/injection, schedule: Q01DX005 (ip), vehicle: saline with Tween-80 91 % of control | [1] 92 % of control | [2] 86 % of control

CC(C)(CO)CN1CCCCC1
inactive: dose: 50.0 mg/kg/injection, schedule: Q04DX003 (ip), vehicle: saline with Tween-80 100 % of control | dose: 100.0 mg/kg/injection, schedule: Q04DX003 (ip), vehicle: saline with Tween-80 100 % of control | dose: 200.0 mg/kg/injection, schedule: Q04DX003 (ip), vehicle: saline with Tween-80 100 % of control

Cn1c(CO)cnc1-c1ccccc1
inactive: dose: 50.0 mg/kg/injection, schedule: Q01DX009 (ip), vehicle: Klucel (hydroxypropylcellulose) (HPC) 99 % of control | dose: 100.0 mg/kg/injection, schedule: Q01DX009 (ip), vehicle: Klucel (hydroxypropylcellulose) (HPC) 100 % of control | dose: 200.0 mg/kg/injection, schedule: Q01DX009 (ip), vehicle: Klucel (hydroxypropylcellulose) (HPC) 97 % of control

Cc1ccc(N=C2c3ccccc3-c3ccc(NC(=O)c4ccccc4)cc32)cc1
inactive: dose: 3.12 mg/kg/injection, schedule: Q01DX005 (ip), vehicle: saline with Tween-80 93 % of control | [1] 93 % of control | [3] 86 % of control | [4] 86 % of control

CC(C)(C)OOC(=O)/C=C/c1ccccc1
inactive: [5] 101 % of control | [6] 108 % of control | [7] 92 % of control

CCCCCCCCCCCCCCCCC1CCCC1C1CCCC1 (configuration not stated)
inactive: dose: 12.5 mg/kg/injection, schedule: Q01DX001 (ip), vehicle: saline with Tween-80 104 % of control | dose: 25.0 mg/kg/injection, schedule: Q01DX001 (ip), vehicle: saline with Tween-80 104 % of control | dose: 50.0 mg/kg/injection, schedule: Q01DX001 (ip), vehicle: saline with Tween-80 104 % of control

COC(=O)C1(CC(=O)C(c2ccccc2)c2ccccc2)NC(=S)NC(=O)C1C#N (configuration not stated)
inactive: dose: 60.0 mg/kg/injection, schedule: Q01DX005 (ip), vehicle: saline 98 % of control | dose: 120.0 mg/kg/injection, schedule: Q01DX005 (ip), vehicle: saline 95 % of control | dose: 240.0 mg/kg/injection, schedule: Q01DX005 (ip), vehicle: saline 100 % of control

COc1cc([C@H]2c3cc4c(cc3C[C@H]3COC(=O)[C@@H]32)OCO4)cc(OC)c1OC
inactive: dose: 12.5 mg/kg/injection, schedule: Q04DX002 (ip), vehicle: saline with Tween-80 92 % of control | dose: 25.0 mg/kg/injection, schedule: Q04DX002 (ip), vehicle: saline with Tween-80 86 % of control | dose: 50.0 mg/kg/injection, schedule: Q04DX002 (ip), vehicle: saline with Tween-80 89 % of control

CN1CC[C@H]([C@@H](O)c2ccccc2)C1=O
inactive: dose: 50.0 mg/kg/injection, schedule: Q01DX005 (ip), vehicle: saline 102 % of control | dose: 100.0 mg/kg/injection, schedule: Q01DX005 (ip), vehicle: saline 102 % of control | dose: 200.0 mg/kg/injection, schedule: Q01DX005 (ip), vehicle: saline 107 % of control

CNc1nc(N)nc2c1nc(Cl)n2C1OC(CO)C(O)C1O (configuration not stated)
inactive: [4] 102 % of control | [8] 101 % of control | [2] 95 % of control

C=C1CCC2C(OC(=O)C2(O)COC(C)=O)C2C(=C)C(O)CC12 (configuration not stated)
inactive: dose: 10.63 mg/kg/injection, schedule: Q01DX005 (ip), vehicle: Klucel (hydroxypropylcellulose) (HPC) 99 % of control | dose: 21.25 mg/kg/injection, schedule: Q01DX005 (ip), vehicle: Klucel (hydroxypropylcellulose) (HPC) 104 % of control | dose: 42.5 mg/kg/injection, schedule: Q01DX005 (ip), vehicle: Klucel (hydroxypropylcellulose) (HPC) 100 % of control | dose: 85.0 mg/kg/injection, schedule: Q01DX005 (ip), vehicle: Klucel (hydroxypropylcellulose) (HPC) 106 % of control | dose: 170.0 mg/kg/injection, schedule: Q01DX005 (ip), vehicle: Klucel (hydroxypropylcellulose) (HPC) 106 % of control

O=C1OC(C2OC(=O)C(=O)C2C(=O)c2cccc([N+](=O)[O-])c2)C(C(=O)c2cccc([N+](=O)[O-])c2)C1=O (configuration not stated)
inactive: [5] 100 % of control | [6] 105 % of control | [7] 100 % of control

CSc1nnc(CCC(=O)Nc2cc(Cl)c(Cl)cc2Cl)o1
inactive: [5] 106 % of control | [6] 105 % of control | [7] 98 % of control

S=C(NNc1nnc(-c2ccccc2)c(-c2ccccc2)n1)Nc1ccccc1
inactive: [3] 106 % of control | dose: 25.0 mg/kg/injection, schedule: Q01DX005 (ip), vehicle: saline with Tween-80 97 % of control | [4] 90 % of control and 93 % of control

O=C1NC(=O)C2CCCc3cccc1c32 (configuration not stated)
inactive: [9] 100 % of control | [10] 97 % of control | [11] 110 % of control

O=C(CCC(=O)ON1C(=O)CCC1=O)OCCOC(=O)CCC(=O)ON1C(=O)CCC1=O
inactive: [4] 116 % of control | [8] 114 % of control | [2] 98 % of control

O=C1/C(=C/c2ccccc2[N+](=O)[O-])COc2ccccc21
inactive: [5] 97 % of control | [6] 103 % of control | [7] 97 % of control

COc1cc(=O)n(-c2ccccc2)nc1C#N
inactive: [4] 93 % of control | [8] 92 % of control | [2] 90 % of control

O=C(NC(Cc1ccccc1)C(=O)O)c1cccnc1 (configuration not stated)
inactive: dose: 25.0 mg/kg/injection, schedule: Q04DX002 (ip), vehicle: Klucel (hydroxypropylcellulose) (HPC) 100 % of control | dose: 52.0 mg/kg/injection, schedule: Q04DX002 (ip), vehicle: Klucel (hydroxypropylcellulose) (HPC) 102 % of control | dose: 100.0 mg/kg/injection, schedule: Q04DX002 (ip), vehicle: Klucel (hydroxypropylcellulose) (HPC) 96 % of control | dose: 200.0 mg/kg/injection, schedule: Q04DX002 (ip), vehicle: Klucel (hydroxypropylcellulose) (HPC) 100 % of control

O=c1ccc2nc3ccccc3sc-2c1
inactive: [12] 90 % of control | [13] 104 % of control | [9] 109 % of control

CCOCC(=O)OC
inactive: dose: 50.0 mg/kg/injection, schedule: Q01DX009 (ip), vehicle: saline 97 % of control | dose: 100.0 mg/kg/injection, schedule: Q01DX009 (ip), vehicle: saline 95 % of control | dose: 200.0 mg/kg/injection, schedule: Q01DX009 (ip), vehicle: saline 100 % of control

CC(N)CCC(C)(C)O (configuration not stated)
inactive: [14] 100 % of control | [15] 90 % of control | dose: 100.0 mg/kg/injection, schedule: Q04DX003 (ip), vehicle: saline 100 % of control

CCCCCCOC(=O)C(O)c1ccccc1 (configuration not stated)
inactive: [10] 100 % of control | [11] 109 % of control

Clc1ccc(N=C2N=C(Nc3ccc(Cl)cn3)c3ccccc32)nc1
inactive: [12] 86 % of control | [13] 89 % of control | [9] 87 % of control and 95 % of control

C=CC1CCCCC1C=C (configuration not stated)
inactive: dose: 12.5 mg/kg/injection, schedule: Q04DX003 (ip), vehicle: saline 100 % of control | [14] 113 % of control | [15] 100 % of control
